{"source": "the supplement of paper PMC10307832", "test_in_all_cases": "relative viability (nuclei count vs DMSO), 5 days (fraction); higher = more cells survive", "key": {"[1]": {"system": "COR-L23", "how_it_was_run": "(§1)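 Relative viability was taken as the ratio of nuclei in treated wells to nuclei in vehicle wells. Lung cancer cell lines in 1536-well plates received compounds by pin tool one day after seeding, either one drug alone or a fixed anchor-drug dose plus five library-drug doses (not always all listed) in √10 steps. Nuclei were counted on 4× images after 5 days of treatment, and values are medians of duplicate plates.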"}, "[2]": {"system": "NCI-H460", "how_it_was_run": "as §1"}, "[3]": {"system": "PC-14", "how_it_was_run": "as §1"}, "[4]": {"system": "NCI-H1563", "how_it_was_run": "as §1"}, "[5]": {"system": "H3255", "how_it_was_run": "as §1"}, "[6]": {"system": "LU99A", "how_it_was_run": "as §1"}, "[7]": {"system": "SW 1573", "how_it_was_run": "as §1"}, "[8]": {"system": "LCLC-97TM1", "how_it_was_run": "as §1"}, "[9]": {"system": "NCI-H1650", "how_it_was_run": "as §1"}, "[10]": {"system": "NCI-H1793", "how_it_was_run": "as §1"}, "[11]": {"system": "201T", "how_it_was_run": "as §1"}}, "data": [{"smiles": "CC(=O)O[C@@]12CO[C@@H]1C[C@H](O)[C@@]1(C)C(=O)[C@H](O)C3=C(C)[C@@H](OC(=O)[C@H](O)[C@@H](NC(=O)OC(C)(C)C)c4ccccc4)C[C@@](O)([C@@H](OC(=O)c4ccccc4)[C@H]21)C3(C)C", "note": "[Docetaxel] + Cc1nc(Nc2ncc(C(=O)Nc3c(C)cccc3Cl)s2)cc(N2CCN(CCO)CC2)n1 [Dasatinib] (partner 0.075 µM)", "values": [{"measurement": "relative viability", "setting": "[1]; first compound 0.0002 µM", "result": 0.458}, {"measurement": "relative viability", "setting": "[1]; first compound 0.000632 µM", "result": 0.406}, {"measurement": "relative viability", "setting": "[1]; first compound 0.002 µM", "result": 0.226}, {"measurement": "relative viability", "setting": "[1]; first compound 0.006325 µM", "result": 0.112}, {"measurement": "relative viability", "setting": "[1]; first compound 0.02 µM", "result": 0.0725}, {"measurement": "relative viability", "setting": "[2]; first compound 0.0002 µM", "result": 0.457}, {"measurement": "relative viability", "setting": "[2]; first compound 0.000632 µM", "result": 0.44}, {"measurement": "relative viability", "setting": "[2]; first compound 0.002 µM", "result": 0.089}, {"measurement": "relative viability", "setting": "[2]; first compound 0.006325 µM", "result": 0.0266}, {"measurement": "relative viability", "setting": "[2]; first compound 0.02 µM", "result": 0.0131}, {"measurement": "relative viability", "setting": "[3]; first compound 0.0002 µM", "result": 0.286}, {"measurement": "relative viability", "setting": "[3]; first compound 0.000632 µM", "result": 0.188}, {"measurement": "relative viability", "setting": "[3]; first compound 0.002 µM", "result": 0.0514}, {"measurement": "relative viability", "setting": "[3]; first compound 0.006325 µM", "result": 0.0304}, {"measurement": "relative viability", "setting": "[3]; first compound 0.02 µM", "result": 0.0231}, {"measurement": "relative viability", "setting": "[4]; first compound 0.0002 µM", "result": 0.433}, {"measurement": "relative viability", "setting": "[4]; first compound 0.000632 µM", "result": 0.454}, {"measurement": "relative viability", "setting": "[4]; first compound 0.002 µM", "result": 0.423}, {"measurement": "relative viability", "setting": "[4]; first compound 0.006325 µM", "result": 0.406}, {"measurement": "relative viability", "setting": "[4]; first compound 0.02 µM", "result": 0.339}, {"measurement": "relative viability", "setting": "[5]; first compound 0.0002 µM", "result": 0.378}, {"measurement": "relative viability", "setting": "[5]; first compound 0.000632 µM", "result": 0.439}, {"measurement": "relative viability", "setting": "[5]; first compound 0.002 µM", "result": 0.276}, {"measurement": "relative viability", "setting": "[5]; first compound 0.006325 µM", "result": 0.309}, {"measurement": "relative viability", "setting": "[5]; first compound 0.02 µM", "result": 0.252}, {"measurement": "relative viability", "setting": "[6]; first compound 0.0002 µM", "result": 0.588}, {"measurement": "relative viability", "setting": "[6]; first compound 0.000632 µM", "result": 0.372}, {"measurement": "relative viability", "setting": "[6]; first compound 0.002 µM", "result": 0.285}, {"measurement": "relative viability", "setting": "[6]; first compound 0.006325 µM", "result": 0.277}, {"measurement": "relative viability", "setting": "[7]; first compound 0.0002 µM", "result": 0.307}, {"measurement": "relative viability", "setting": "[7]; first compound 0.000632 µM", "result": 0.19}, {"measurement": "relative viability", "setting": "[7]; first compound 0.002 µM", "result": 0.122}, {"measurement": "relative viability", "setting": "[7]; first compound 0.02 µM", "result": 0.0658}, {"measurement": "relative viability", "setting": "[8]; first compound 0.0002 µM", "result": 0.843}, {"measurement": "relative viability", "setting": "[8]; first compound 0.000632 µM", "result": 0.762}, {"measurement": "relative viability", "setting": "[8]; first compound 0.002 µM", "result": 0.675}, {"measurement": "relative viability", "setting": "[8]; first compound 0.006325 µM", "result": 0.273}, {"measurement": "relative viability", "setting": "[8]; first compound 0.02 µM", "result": 0.144}, {"measurement": "relative viability", "setting": "[9]; first compound 0.0002 µM", "result": 0.263}, {"measurement": "relative viability", "setting": "[9]; first compound 0.000632 µM", "result": 0.245}, {"measurement": "relative viability", "setting": "[9]; first compound 0.02 µM", "result": 0.104}, {"measurement": "relative viability", "setting": "[10]; first compound 0.0002 µM", "result": 0.351}, {"measurement": "relative viability", "setting": "[10]; first compound 0.000632 µM", "result": 0.345}, {"measurement": "relative viability", "setting": "[10]; first compound 0.002 µM", "result": 0.279}, {"measurement": "relative viability", "setting": "[10]; first compound 0.006325 µM", "result": 0.175}, {"measurement": "relative viability", "setting": "[10]; first compound 0.02 µM", "result": 0.16}, {"measurement": "relative viability", "setting": "[11]; first compound 0.0002 µM", "result": 0.562}, {"measurement": "relative viability", "setting": "[11]; first compound 0.000632 µM", "result": 0.548}, {"measurement": "relative viability", "setting": "[11]; first compound 0.002 µM", "result": 0.52}, {"measurement": "relative viability", "setting": "[11]; first compound 0.006325 µM", "result": 0.46}]}]}
